Experimental findings from patent US4640915A, “1-azabicyclo[3.2.0]hept-2-ene-2-carboxylic acid derivatives” (Fujisawa Pharmaceutical Co., Ltd., priority 1982, dated 1987) are described below.

Structures are written as SMILES. Read-outs that look alike come from different tables or passages of the source.

One assay concerns the target R-TEM Penicillinase (Escherichia coli, UniProt P62593). Kind of assay: Inactivation of β-Lactamase, direct spectrophotometric assay with chromogenic cephalosporin. Type of assay: biochemical, Escherichia coli 18. Particulars: 100 μg/ml, 5 minutes at 37° C.
For the next assay, the target named is Ia Cephalosporinase (Enterobacter cloacae, UniProt P05364). The description is as above. Type of assay: biochemical, Enterobacter cloacae 91. The conditions noted are these: 5 min, read-out: Inactivation (%). Here is the method:
Ia Cephalosporinase derived from Enterobacter cloacae 91.
Test compound solution (100 μg/ml) was incubated for 5 minutes at 37° C. with β-lactamase before determination of enzymatic activity. β-Lactamase activity was measured by direct spectrophotometric assay using a chromogenic cephalosporin as a substrate. The extent of inactivation was expressed as percent ratio of inactivated activity.

For a further assay, the system named is Escherichia coli 36. Kind of assay: Synergistic Protecting Effect on experimental mice infection. Type of assay: in vivo, ICR strain-mice (infected with Escherichia coli 36). The conditions noted are these: combination 1:1 by weight, subcutaneous, one hour after i.p. challenge, survival over 4 days. How it is done: (i) Combination of Compound C (Compound of the present invention) and Ceftizoxime (known antimicrobial agent, hereinafter referred to as CZX) (1:1 by weight).
(ii) Combination of Compound C (Compound of the present invention) and Cefazolin (known antimicrobial agent, hereinafter referred to as CEZ) (1:1 by weight).
4-week-old male ICR strain-mice, weighing 21.5±1.5 g.
1.1×10^5 Colony forming unit of Escherichia coli 36 suspended in 0.5 ml of 5% mucin were intraperitoneally injected.
One hour after challenge, mice were treated subcutaneously with various doses of test compound. The ED50 values were calculated by the probit method from the number of mice surviving 4 days of observation.

Assay [1] concerns Esherichia coli NIHJ JC-2. In words: in vitro antimicrobial activity, two-fold agar-plate dilution method (MIC). Type of assay: cell-based. Particulars: Escherichia coli, NIHJJC2; E. coli NIHJ JC-2; HI-agar, 37° C., 20 hours. Here is the method: (§1) In vitro Antimicrobial activity was determined by the two-fold agar-plate dilution method as described below.
(§2) One loopful of an overnight culture of each test strain in Trypticase-soy broth (10^6 viable cells per ml) was streaked on heart infusion agar (HI-agar) containing graded concentrations of the test compound, and the minimal inhibitory concentration (MIC) was expressed in terms of μg/ml after incubation at 37° C. for 20 hours.

Assay [2] has as its system Staphylococcus aureus 209P JC-1. The assay is described as above. Type of assay: cell-based. Particulars: S. aureus 209P JC-1, HI-agar, 37° C., 20 hours. How it is done: as §1, §2

R-TEM Penicillinase, sequence (P62593 24-286 limits assumed): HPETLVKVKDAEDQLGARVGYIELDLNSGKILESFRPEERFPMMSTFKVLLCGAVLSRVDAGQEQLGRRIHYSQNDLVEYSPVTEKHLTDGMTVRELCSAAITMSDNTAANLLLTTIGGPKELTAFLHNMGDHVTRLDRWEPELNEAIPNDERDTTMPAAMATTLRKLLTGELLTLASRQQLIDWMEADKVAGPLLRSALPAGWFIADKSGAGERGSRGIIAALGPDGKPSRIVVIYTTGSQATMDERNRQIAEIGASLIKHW
Ia Cephalosporinase, sequence (P05364 21-381): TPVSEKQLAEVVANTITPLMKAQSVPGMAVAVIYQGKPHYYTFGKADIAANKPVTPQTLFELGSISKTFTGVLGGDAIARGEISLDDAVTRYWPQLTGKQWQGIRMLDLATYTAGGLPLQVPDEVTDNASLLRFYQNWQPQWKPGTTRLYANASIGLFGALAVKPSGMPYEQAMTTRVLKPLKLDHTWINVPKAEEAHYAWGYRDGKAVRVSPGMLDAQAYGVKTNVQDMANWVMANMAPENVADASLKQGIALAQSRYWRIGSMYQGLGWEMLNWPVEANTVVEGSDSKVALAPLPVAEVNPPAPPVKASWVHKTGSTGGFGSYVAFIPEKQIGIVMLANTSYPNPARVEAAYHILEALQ

Regarding `CC(C)(O)[C@H]1C(=O)N2C(C(=O)[O-])=C(Sc3ccncc3)C[C@H]12.[Na+]` [Compound C, Sodium (5R,6S)-3-(4-pyridylthio)-6-(1-hydroxy-1-methylethyl)-7-oxo-1-azabicyclo[3.2.0]hept-2-ene-2-carboxylate], the “Inactivation (%)” value on R-TEM Penicillinase was more than 95%. Also, at Ia Cephalosporinase (100 μg/ml, 5 minutes at 37° C., Ia Cephalosporinase), the inhibition at 100 µg/mL is more than 95%. In addition, the ED50 values in the assay on Escherichia coli 36 ((i) with CZX) and with Escherichia coli 36 ((ii) with CEZ) was more than 112 mg/kg throughout.
For the compound `Cn1nnnc1SC1=C(C(=O)[O-])N2C(=O)[C@@H](C(C)(C)O)[C@H]2C1.[K+]` [Compound D, Potassium (5R,6R)-3-(1-methyl-1H-tetrazol-5-ylthio)-6-(1-hydroxy-1-methylethyl)-7-oxo-1-azabicyclo[3.2.0]hept-2-ene-2-carboxylate], the “Inactivation (%)” value at R-TEM Penicillinase is more than 95%. Also, the inhibition at 100 µg/mL at Ia Cephalosporinase is more than 95%.
For orientation: MIC means the least concentration at which growth counts as inhibited. A lower MIC goes with greater potency. In the case of `CC(C)(O)[C@@H]1C(=O)N2C(C(=O)[O-])=C(Sc3ccncc3)C[C@H]12.[Na+]` [Compound A, Sodium (5R, 6R)-3-(4-pyridylthio)-6-(1-hydroxy-1-methylethyl)-7-oxo-1-azabicyclo[3.2.0]hept-2-ene-2-carboxylate], the MIC in assay [1] and in assay [2] was 0.1 µg/mL in each case.
Consider `Cc1nnc(SCC2=C(C(=O)O)N3C(=O)[C@@H](NC(=O)Cn4cnnn4)[C@H]3SC2)s1` [CEZ, Cefazolin, reference compound], for which, in the assay with Escherichia coli 36 ((ii) with CEZ), the ED50 values is recorded as 20.8 mg/kg.
`Cc1nnc(SC2=C(C(=O)[O-])N3C(=O)[C@@H](C(C)(C)O)[C@H]3C2)s1.[K+]` [Compound B, Potassium (5R, 6R)-3-(5-methyl-1,3,4-thiadiazol-2-ylthio)-6-(1-hydroxy-1-methylethyl)-7-oxo-1-azabicyclo[3.2.0]hept-2-ene-2-carboxylate]: the MIC in assay [1] and in assay [2] was 0.2 µg/mL each time.
As to `CO/N=C(\C(=O)N[C@@H]1C(=O)N2C(C(=O)O)=CCS[C@H]12)c1csc(N)n1` [CZX, Ceftizoxime, reference compound], the ED50 values with Escherichia coli 36 ((i) with CZX) is 3.42 mg/kg.
